In paper PMC7767178 (International Journal of Molecular Sciences, 2020):
Values after ≈ are worked out from the molar mass of the structure shown. Like-named read-outs stand apart in the source and are kept apart here.

How the values were obtained:
A. veronii X-1-06909 = experiment: microbe, parasite or virus in culture; type: cell-based
Text: (§1) All experiments were repeated three times.

[1] = system: Candida albicans CMCC98001; experiment: microbe, parasite or virus in culture; type: cell-based; settings: CMCC98001
Text: as §1

E. coli CVCC1515 = experiment: microbe, parasite or virus in culture; type: cell-based; settings: E. coli CVCC1515, broth dilution, 37 °C, 16–18 h, three experiments
Text: as §1

E. coli CVCC25922 = experiment: microbe, parasite or virus in culture; type: cell-based
Text: as §1

Escherichia coli CVCC195 = experiment: microbe, parasite or virus in culture; type: cell-based
Text: as §1

S. enteritidis CVCC3377 = experiment: microbe, parasite or virus in culture; type: cell-based
Text: as §1

S. pullorum CVCC1789 = experiment: microbe, parasite or virus in culture; type: cell-based
Text: as §1

S. pullorum CVCC1809 = experiment: microbe, parasite or virus in culture; type: cell-based
Text: as §1

S. pullorum CVCC533 = experiment: microbe, parasite or virus in culture; type: cell-based
Text: as §1

[2] = system: Staphylococcus aureus ATCC43300; experiment: microbe, parasite or virus in culture; type: cell-based; settings: Staphylococcus aureus ATCC43300, broth dilution, 37 °C, 16–18 h, three experiments
Text: as §1

E. coli CVCCO157 = experiment: MIC, microtiter broth dilution; type: cell-based; settings: 37 °C, 16–18 h, three experiments
Text: as §1

S. hyicus 437-2 = type: cell-based
A. veronii ACCC61732 [3] = experiment: Time-killing curves; type: cell-based; settings: 2× MIC; 1 × 10^5 CFU/mL, colony counting, 0–24 h
Description: Time-killing curves were performed as previously described. […] The sample of 100 μL was taken from each flask at 0, 0.5, 1, 2, 4, 6, 8, 10, 20, and 24 h, respectively, and serially diluted for colony counting. PBS and CIP were used as the negative and positive control, respectively.

A. veronii ACCC61732 [4] = experiment: Post-antibiotic effect (PAE); type: cell-based; settings: 2 h exposure, 1000-fold dilution, 37 °C, triplicate
Description: The samples were taken from flasks for counting each hour until bacterial cultures became turbid. The untreated bacteria severed as controls. The PAE was calculated using the following equation: PAE = T − C, where T is the time (h) required for the CFU in the test culture to increase by 10-fold from the count immediately after the drug removal and C is the corresponding time (h) for the control. The experiment was performed in triplicate.

A. veronii ACCC61732 [5] = experiment: Resistance development, 30 serial passages; type: cell-based; settings: A. veronii ACCC61732, 30 passages (30 days)
Description: The development of bacterial resistance of peptides was performed by the MIC assays. […] GEN, CIP, and PMB were used as controls. […] The MIC values were measured as described above. The serial passaging was repeated for 30 days.

A. veronii ACCC61732 [6] = experiment: Outer membrane permeabilization, NPN assay; type: cell-based; settings: NPN fluorescence, 1×–4× MIC
Description: The outer membrane permeabilization abilities of peptides were determined using the fluorescent NPN assay. Mid-log phase A. veronii ACCC61732 was collected by centrifugation, washed twice, and then suspended in N-2-hydroxyethylpiperazine-n-2-ethane sulfonic acid (HEPES) buffer (pH 7.4) to an OD600nm = 0.4. […] Fluorescence intensity was recorded until no further increase with a microplate reader (excitation/emission, 328/438 nm).

A. veronii ACCC61732 [7] = experiment: Inner membrane permeability, PI staining, flow cytometry; type: cell-based
Description: To analyze effects of peptides on the inner membrane, A. veronii ACCC61732 cells were cultured to mid-log phase at 37 °C in MHB medium, washed thrice with PBS, and resuspended in the PBS buffer to 1 × 10^8 CFU/mL. […] After fixation with PI, the samples were detected by a fluorescent inverted microscope and FACS Calibur Flow Cytometer (BD, San Jose, CA, USA), respectively. Cell Quest Pro software (BD, San Jose, CA, USA) was used for the data analysis.

[8] = system: A. veronii ACCC61732 in biofilm; type: cell-based; settings: 2 h
Description: The mid-log phase A. veronii ACCC61732 cells (1 × 10^8 CFU/mL) were inoculated into in the 96-well plates and cultured for 24 h at 37 °C. The plates were washed twice with PBS. […] PBS was used as the negative control. The plates were treated with ultrasound for 5 min and the viable bacteria were counted on the TSA plates.

IL-10 = experiment: Serum cytokine, ELISA, peritonitis model; type: in vivo; settings: 5 μmol/kg, 24 h after treatment, range over mice
Description: (§2) Sera and organs (livers, kidneys, spleens, and lungs) were collected from the mice at 24 h post-treatment. The organs were homogenized in sterile PBS to evaluate bacterial translocation by colony counting. The levels of cytokines (TNF-α, IL-1β, IL-6, and IL-10) in sera were detected using the ELISA kits.

IL-1β = experiment: Serum cytokine, ELISA, peritonitis model; type: in vivo; settings: 5 μmol/kg, 24 h after treatment, range over mice
Description: as §2

IL-6 = experiment: Serum cytokine, ELISA, peritonitis model; type: in vivo; settings: 5 μmol/kg, 24 h after treatment, range over mice
Description: as §2

TNF-α = experiment: Serum cytokine, ELISA, peritonitis model; type: in vivo; settings: 5 μmol/kg, 24 h after treatment, range over mice
Description: as §2

Salmonella = settings: range over the strains of Table 2

Question: With `CC(C)[C@H]1NC(=O)CNC(=O)[C@@H](CC(N)=O)NC(=O)[C@@H](CCCNC(=N)N)NC(=O)[C@@H](Cc2ccc(O)cc2)NC(=O)[C@@H](C(C)C)NC(=O)[C@H](NC(=O)[C@H](NC(=O)[C@@H](CC(N)=O)NC(=O)[C@@H](Cc2c[nH]c3ccccc23)NC(=O)[C@@H](C)NC(=O)[C@@H](Cc2ccccc2)NC(=O)CN)C(C)C)CSSC[C@H](C(=O)N[C@H](Cc2c[nH]cn2)C(=O)N[C@H](CCCNC(=N)N)C(=O)N[C@H](CCCNC(=N)N)C(=O)N[C@H](C)C(=O)N[C@H](CC(N)=O)C(N)=O)NC(=O)[C@@H](C(C)C)NC(=O)[C@@H](CCCNC(=N)N)NC1=O` [DN6NH2] as the compound, how does the MIC (A. veronii X-1-06909; A. veronii X-1-06909, broth dilution, 37 °C, 16–18 h, three experiments) read?
Answer: 32 µg/mL

Question: What about the MIC (A. veronii X-1-06909; read-out: MIC) of the same compound?
Answer: 12.93 µM

Question: And the MIC [1]?
Answer: 128 µg/mL (≈ 51.7 µM)

Question: And the MIC (E. coli CVCC1515)?
Answer: 4 µg/mL

Question: And the MIC (E. coli CVCC1515; read-out: MIC)?
Answer: 1.62 µM

Question: What about the MIC (E. coli CVCC25922; CVCC25922, read-out: MIC) of the same compound?
Answer: 3.23 µM

Question: And the MIC (E. coli CVCC25922; E. coli CVCC25922, broth dilution, 37 °C, 16–18 h, three experiments)?
Answer: 8 µg/mL

Question: What about the MIC (Escherichia coli CVCC195; CVCC195, read-out: MIC) of the same compound?
Answer: 3.23 µM

Question: And the MIC (Escherichia coli CVCC195; Escherichia coli CVCC195, broth dilution, 37 °C, 16–18 h, three experiments)?
Answer: 8 µg/mL

Question: What about the MIC (S. enteritidis CVCC3377; CVCC3377, read-out: MIC) of the same compound?
Answer: 0.81 µM

Question: What about the MIC (S. enteritidis CVCC3377; S. enteritidis CVCC3377, broth dilution, 37 °C, 16–18 h, three experiments) of the same compound?
Answer: 2 µg/mL

Question: What about the MIC (S. pullorum CVCC1789; CVCC1789, read-out: MIC) of the same compound?
Answer: 6.46 µM

Question: And the MIC (S. pullorum CVCC1789; S. pullorum CVCC1789, broth dilution, 37 °C, 16–18 h, three experiments)?
Answer: 16 µg/mL

Question: What about the MIC (S. pullorum CVCC1809; CVCC1809, read-out: MIC) of the same compound?
Answer: 3.23 µM

Question: And the MIC (S. pullorum CVCC1809; S. pullorum CVCC1809, broth dilution, 37 °C, 16–18 h, three experiments)?
Answer: 8 µg/mL

Question: And the MIC (S. pullorum CVCC533; CVCC533, read-out: MIC)?
Answer: 6.46 µM

Question: And the MIC (S. pullorum CVCC533; S. pullorum CVCC533, broth dilution, 37 °C, 16–18 h, three experiments)?
Answer: 16 µg/mL

Question: What about the MIC [2] of the same compound?
Answer: 4 µg/mL

Question: What about the MIC ([2]; read-out: MIC) of the same compound?
Answer: 1.62 µM

Question: And the MIC (E. coli CVCCO157)?
Answer: 4 µg/mL

Question: What about the MIC (E. coli CVCCO157; read-out: MIC) of the same compound?
Answer: 1.62 µM

Question: And the MIC (S. hyicus 437-2)?
Answer: 3.23 µM

Question: What about the MIC (S. hyicus 437-2; S. hyicus 437-2 (clinical isolate, pig farm), broth dilution, 37 °C, 16–18 h, three experiments) of the same compound?
Answer: 8 µg/mL

Question: What about the “time to completely kill A. veronii ACCC61732” value (A. veronii ACCC61732 [3]) of the same compound?
Answer: ≤ 1 h

Question: What about the PAE (A. veronii ACCC61732 [4]; 1× MIC) of the same compound?
Answer: 0.68 ± 0.01 h

Question: What about the PAE (A. veronii ACCC61732 [4]; 2× MIC) of the same compound?
Answer: 1.13 ± 0.11 h

Question: What about the PAE (A. veronii ACCC61732 [4]; 4× MIC) of the same compound?
Answer: 3.36 ± 0.19 h

Question: What about the “increase of MIC after 30 serial passages” value (A. veronii ACCC61732 [5]) of the same compound?
Answer: seven-fold

Question: And the “ability to penetrate the outer membrane” value (A. veronii ACCC61732 [6])?
Answer: higher ability to penetrate the outer membrane than N6NH2

Question: And the “Permeability (PI-positive cells)” value (A. veronii ACCC61732 [7]; 1× MIC, 0.5 h)?
Answer: 0%

Question: And the “Permeability (PI-positive cells)” value (A. veronii ACCC61732 [7]; 1× MIC, 2 h)?
Answer: 3.42%

Question: What about the “Permeability (PI-positive cells)” value (A. veronii ACCC61732 [7]; 2× MIC, 0.5 h) of the same compound?
Answer: 9.16%

Question: And the “Permeability (PI-positive cells)” value (A. veronii ACCC61732 [7]; 2× MIC, 2 h)?
Answer: 9.83%

Question: And the “Permeability (PI-positive cells)” value (A. veronii ACCC61732 [7]; 4× MIC, 0.5 h)?
Answer: 41.93%

Question: What about the “Permeability (PI-positive cells)” value (A. veronii ACCC61732 [7]; 4× MIC, 2 h) of the same compound?
Answer: 33.73%

Question: And the “bacteria in biofilm killed” value [8]; 8?
Answer: 64.22%

Question: What about the “bacteria in biofilm killed” value [8]; 16 of the same compound?
Answer: 66.79%

Question: And the “serum level of IL-10” value (IL-10)?
Answer: 15.94 to 25.46 pg/mL

Question: And the “serum level of IL-1β” value (IL-1β)?
Answer: 8.17 to 25.94 pg/mL

Question: And the “serum level of IL-6” value (IL-6)?
Answer: 104.48 to 115.43 pg/mL

Question: And the “serum level of TNF-α” value (TNF-α)?
Answer: 40.02 to 66.20 pg/mL

Question: What about the “MIC values against Salmonella” value (Salmonella) of the same compound?
Answer: 0.81 to 6.46 µM
